Source: patent US12528805B2, “Solid forms of emetine” (Acer Therapeutics, Inc., priority 2020, dated 2026)
Structures can show the parent of a compound that is named as a salt.

Legend:
[1] = Solid form stability on storage (XRPD re-analysis); format: physicochemical
Method: The solids were dried under vacuum at ambient temperature (about 23° C.) for 17 h. The solids on the XRPD plate were stored at 40° C./75% RH for 22 h then re-analyzed. Amorphous and a mixture of Compound I dihydrochloride Form 2 and Form 6 were obtained (Table 7).
The solids were isolated by filtration after a total of 27.5 h at 5° C. and washed with 0.6 mL of cold acetone or 3×0.6 mL of cold heptane. The solids were dried under vacuum at ambient temperature (about 23° C.) for 17 h. The solids on the XRPD plate were stored at 40° C./75% RH for 22 h then re-analyzed by XRPD. Results, which are summarized in Table 8, show mixtures of Compound I dihydrochloride Forms 5 and 6, 5, 2 and 1, and 2 were obtained.
1.0 mL of water was added to approximately 300 mg of Compound I dihydrochloride Form 1. The resulting mixture was magnetically stirred at 50° C. over about 15 min, then stirred at 50° C. for 0.25 h. The solution was polish filtered (0.45 μm PTFE filter) into a 2 mL push-cap vial and then stirred at 50° C. for 0.25 h, prior to cooling to 5° C. at 0.1° C./min. After 62 h at 5° C., the experiment was sub-sampled and the solid was analyzed by XRPD. The material on the XRPD plate was dried under vacuum at 35° C. under a stream of wet nitrogen (20-38% RH) for about 9 h and then re-analyzed by XRPD. The material on the XRPD plate was stored at 25° C./60% RH for 22 h and then re-analyzed by XRPD. After a total of 87 h at 5° C., solids were isolated by centrifugation (0.22 μm nylon filter) and analyzed by XRPD. The solids were air-dried at ambient temperature (about 22° C.) for 24 h.
Small-scale crystallization Experiment 7 was sub-sampled prior to ASA and after ASA was complete, with solids isolated by centrifugation (0.22 μm nylon filter) and analyzed by XRPD.
Approximately 10 g of Compound I dihydrochloride Form 1 was dissolved in 67 mL of ethanol:water 99:1 v/v at about 60° C. (initial concentration: 150 mg/mL). Polish filtration was carried out (0.2 μm PTFE filter). The solution was transferred to a 250 mL vessel at 60° C. and stirred at 50° C. (solution temperature) and 300 rpm for about 5 min. The solution was seeded with about 100 mg (1 wt. %) of Compound I dihydrochloride Form 2, isolated from small-scale crystallization Experiments 12 and 13, from example 4 above. The seed dissolved rapidly. Anti-solvent addition of 10 mL of heptane (1 volume) was carried out at 2 vol/h (Heptane content of 13%). The solution was re-seeded with a further 100 mg (1 wt. %) of Form 2, isolated from small-scale crystallization Experiment 12. The seed persisted and a slurry formed. The slurry was stirred at 50° C. for 1 h and then anti-solvent addition of 131 mL of heptane at 1.5 vol/h was carried out, to reach 60% heptane. […] An additional 2 volumes of ethanol:water 99:1 v/v was added at the beginning of the ASA to mobilize the slurry. Once ASA was complete, the slurry was cooled to 5° C. at 0.1° C./min. The experiment was sub-sampled after about 2 h at 5° C. The slurry was thick but mixing. After 3.5 h at 5° C., an additional 3.6 mL of water was added to increase the water content to 2% (ethanol:water:heptane ratio of 39:2:59 v/v/v). The experiment was sub-sampled again after 2 h at 5° C. with additional water. After a total of 10 h at 5° C., solids were isolated by filtration and washed with 2 volumes of cold (5° C.) ethanol:heptane 40:60 v/v. The solids were filtered and dried under vacuum at ambient temperature (about 21° C.) for 14.5 h, then analyzed by XRPD.

[2] = Dynamic vapor sorption (DVS); settings: for DVS uptake: 25° C.
[3] = Solubility screening by solvent addition technique (approximate solubility); format: physicochemical; settings: thermodynamic from solid; water; at ambient temperature; small, fine particles remained (Experiment 25)
[4] = stored at 40° C./75% RH for 22 h

SMILES: CC[C@H]1CN2CCc3cc(OC)c(OC)cc3[C@@H]2C[C@@H]1C[C@H]1NCCc2cc(OC)c(OC)cc21 [Compound I dihydrochloride Form 8, (2S,3R,11bS)-2-(((R)-6,7-dimethoxy-1,2,3,4-tetrahydroisoquinolin-1-yl)methyl)-3-ethyl-9,10-dimethoxy-1,3,4,6,7,11b-hexahydro-2H-pyrido[2,1-a]isoquinoline dihydrochloride]
- Solid form by XRPD after storage ([1]; 1 h under ambient conditions): converted to Compound I dihydrochloride Form 2
- Solid form by XRPD after storage ([1]; 3 h under ambient conditions): converted to Form 2

SMILES: CC[C@H]1CN2CCc3cc(OC)c(OC)cc3[C@@H]2C[C@@H]1C[C@H]1NCCc2cc(OC)c(OC)cc21 [Compound I dihydrochloride Form 7B, (2S,3R,11bS)-2-(((R)-6,7-dimethoxy-1,2,3,4-tetrahydroisoquinolin-1-yl)methyl)-3-ethyl-9,10-dimethoxy-1,3,4,6,7,11b-hexahydro-2H-pyrido[2,1-a]isoquinoline dihydrochloride]
- DVS uptake ([2]; between 20-70% RH, cycle 2 sorption, material of large-scale Experiment 4 dried under vacuum at about 20° C. for 17.5 h): 8.7%
- DVS uptake ([2]; between 40-80% RH, cycle 1 sorption): about 3%
- DVS uptake ([2]; between 80-90% RH, cycle 1 sorption): large uptake
- Relative humidity of deliquescence ([2]; post-DVS XRPD: amorphous material was recovered): about 90 % RH

SMILES: CC[C@H]1CN2CCc3cc(OC)c(OC)cc3[C@@H]2C[C@@H]1C[C@H]1NCCc2cc(OC)c(OC)cc21 [Compound I dihydrochloride Form 2, (2S,3R,11bS)-2-(((R)-6,7-dimethoxy-1,2,3,4-tetrahydroisoquinolin-1-yl)methyl)-3-ethyl-9,10-dimethoxy-1,3,4,6,7,11b-hexahydro-2H-pyrido[2,1-a]isoquinoline dihydrochloride]
- Solid form by XRPD after storage ([1]; stored at 40° C./75% RH for 22 h, dihydrochloride): maintained

SMILES: CC[C@H]1CN2CCc3cc(OC)c(OC)cc3[C@@H]2C[C@@H]1C[C@H]1NCCc2cc(OC)c(OC)cc21 [Compound I dihydrochloride Form 6, (2S,3R,11bS)-2-(((R)-6,7-dimethoxy-1,2,3,4-tetrahydroisoquinolin-1-yl)methyl)-3-ethyl-9,10-dimethoxy-1,3,4,6,7,11b-hexahydro-2H-pyrido[2,1-a]isoquinoline dihydrochloride]
- Solid form by XRPD after storage ([1]; storage at ambient conditions): maintained
- Solid form by XRPD after storage ([1]; stored at 25° C./60% RH for 22 h): maintained

SMILES: CC[C@H]1CN2CCc3cc(OC)c(OC)cc3[C@@H]2C[C@@H]1C[C@H]1NCCc2cc(OC)c(OC)cc21 [Form 2 with a trace Form 1]
- Solid form by XRPD after storage [1, 4]: Compound I dihydrochloride Form 2 was obtained

SMILES: CC[C@H]1CN2CCc3cc(OC)c(OC)cc3[C@@H]2C[C@@H]1C[C@H]1NCCc2cc(OC)c(OC)cc21 [mixture of Form 5 and Form 6]
- Solid form by XRPD after storage ([1]; storage at 5° C. for about 2 weeks): Conversion to Form 5
- Solid form by XRPD after storage [1, 4]: conversion back to Compound I dihydrochloride Form 5

SMILES: CC[C@H]1CN2CCc3cc(OC)c(OC)cc3[C@@H]2C[C@@H]1C[C@H]1NCCc2cc(OC)c(OC)cc21 [Compound I dihydrochloride Form 1, (2S,3R,11bS)-2-(((R)-6,7-dimethoxy-1,2,3,4-tetrahydroisoquinolin-1-yl)methyl)-3-ethyl-9,10-dimethoxy-1,3,4,6,7,11b-hexahydro-2H-pyrido[2,1-a]isoquinoline dihydrochloride]
- solubility [3]: > 200 mg/mL
